Our source for the GI50 and TGI values is PubChem BioAssay (NCI).

What all share (assay): DTP human tumour cell line panel, 48 h
The subject of assay [1] is HL-60(TB) leukemia.
Assay [2] relates to HOP-62 NSCLC.
Assay [3] concerns IGROV1 ovarian.
Assay [4] deals with OVCAR-8 ovarian.
The subject of assay [5] is RPMI-8226 leukemia.
Assay [6] concerns RXF 393 renal.
For assay [7], the system named is SK-MEL-2 melanoma.
In assay [8] the test system is SK-MEL-5 melanoma.
Assay [9] has as its system SW-620 colon.
In assay [10] the test system is UACC-257 melanoma.

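Cultured in 96-well plates, cells were exposed to test compound for 48 hours across five concentrations. GI50: concentration for 50% inhibition of growth. TGI is the concentration that stops growth completely.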 Some results are limits rather than exact numbers.

For the molecule `COc1ccc(/C=C/C(=O)c2cc3c(N)c(C(=O)Nc4ccc(OC)cc4)sc3nc2C)cc1`, the GI50 (usually the concentration at which growth is held to half of that of the control) was 323 nM in [1]; 214 nM in assay [2]; 551 nM in [3]; 334 nM in [4]; 348 nM in assay [5]; 124 nM in assay [6]. In addition, the GI50 in [7] is 359 nM; in [8] it was 203 nM; in [9] it was 543 nM; in assay [10], greater than 23400 nM. The TGI (as a rule, the concentration at which net growth stops) in [1] was 2220 nM; in [2] it was greater than 50000 nM; in assay [3], greater than 50000 nM; in assay [4], greater than 50000 nM; in assay [5] it was greater than 34000 nM; in assay [7] it was greater than 50000 nM. Further, the values for the TGI in assay [8], in assay [9] and in [10] were 4030 nM, greater than 50000 nM and greater than 50000 nM, respectively.
Take `NC(=O)/C(=C/n1cnc(-c2cc(C(F)(F)F)cc(C(F)(F)F)c2)n1)c1cncnc1`: the GI50 in assay [1] is 56.2 nM; in [2], 1060 nM; in assay [3] it was 696 nM; in assay [4] it was 329 nM; in assay [5] it was 102 nM; in assay [6], 70.6 nM. The GI50 in assay [7] was 353 nM; in [8] it was 1130 nM; in assay [9] it was 175 nM; in assay [10], 860 nM. Also, the TGI is 2960 nM in assay [1]; 17200 nM in assay [2]; 14700 nM in assay [3]; 18200 nM in assay [4]; 9530 nM in assay [5]; 573 nM in assay [6]. Besides, the TGI in assay [7] came out at 5750 nM; in assay [8], 10200 nM; in assay [9] it was 7030 nM; in [10], 8990 nM.
For the molecule `N#[N+]c1ccc(Nc2ccccc2)cc1`, the GI50 in [1], in assay [2], in [3], in [4], in assay [5] and in assay [6] was greater than 50 µg/mL throughout. Also, the GI50 in [7], in [8], in [9] and in [10] was greater than 50 µg/mL each time. In addition, the TGI in assay [1], in assay [2], in assay [3], in assay [4], in [5] and in assay [6] was greater than 50 µg/mL throughout. The TGI in assay [7], in assay [8], in assay [9] and in [10] was greater than 50 µg/mL each time.
For the molecule `COc1ccc(-c2csc(Nc3cccc(-c4csc(C)n4)c3)n2)cc1`, the GI50 in assay [1] is 138 nM; in assay [2] it was 2810 nM; in [3], 697 nM; in assay [4] it was 2270 nM; in [5], 2520 nM; in assay [6], 1870 nM. The GI50 is 4700 nM in assay [7], 1190 nM in [8], 441 nM in [9] and 3260 nM in assay [10]. The TGI is 3880 nM in [1]; greater than 33800 nM in assay [2]; greater than 41600 nM in assay [3]; greater than 31200 nM in [4]; greater than 50000 nM in [5]; greater than 14900 nM in [6]. For the same molecule, the TGI in assay [7] was greater than 27000 nM; in [8] it was 7850 nM; in assay [9], greater than 50000 nM; in assay [10], 19700 nM.
Take `O=C1Nc2ccc3c(c2/C1=C\c1cc2c(cc1Br)OCO2)OCO3`: the GI50 in [1] was 271 nM; in assay [2], 393 nM; in assay [3] it was 199 nM; in assay [4] it was 855 nM; in assay [5] it was 270 nM; in assay [6], 901 nM. Also, the GI50 in assay [7] is 3400 nM; in assay [8] it was 429 nM; in assay [9] it was 357 nM; in assay [10], 685 nM. In addition, the TGI in assay [1] came out at 2350 nM; in assay [2] it was 2070 nM; in assay [3], 1700 nM; in [4], 4870 nM; in assay [5], 801 nM; in [6] it was 3780 nM. The TGI is greater than 100000 nM in assay [7], 2520 nM in [8] and 3470 nM in assay [9].
As for `C[C@@H]1CCc2ncc(F)cc2[C@H]2CCCN2c2ccn3ncc(c3n2)C(=O)N1`, the GI50 in assay [1] is greater than 100000 nM; in assay [2], 60000 nM; in [3], 34600 nM; in assay [4], greater than 100000 nM; in [5], 94800 nM; in assay [6], 16700 nM. The GI50 in assay [7], in assay [8], in assay [9] and in assay [10] was greater than 100000 nM throughout. Also, the TGI in [1] is greater than 100000 nM; in [2] it was greater than 100000 nM; in assay [3], greater than 100000 nM; in assay [4] it was greater than 100000 nM; in assay [5], greater than 100000 nM; in assay [6], 61000 nM. In addition, the TGI in assay [7], in assay [8], in assay [9] and in assay [10] was greater than 100000 nM throughout.
`C[As](C)SC1OCC(O)C(O)C1O` (stereo not drawn): the GI50 in assay [1] was 27.8 nM; in assay [2] it was 2150 nM; in [3] it was 805 nM; in [4] it was 284 nM; in assay [5], 53.7 nM; in assay [6], 321 nM. Besides, the GI50 was 580 nM in [7], 166 nM in assay [8], 217 nM in [9] and 1430 nM in assay [10]. Besides, the TGI in assay [1] was determined as 189 nM; in assay [2] it was 9520 nM; in assay [3] it was 6710 nM; in assay [4], 2820 nM; in [5], 604 nM; in assay [6] it was 3390 nM. Moreover, the TGI worked out at 2530 nM in assay [7], 382 nM in assay [8], 1590 nM in assay [9] and 7220 nM in assay [10].
As to `Cc1ccc2ccc(-c3ccccc3)c3c2c1C(=O)c1ccccc1C3=O`, the TGI in assay [1], in assay [2], in [3], in [4], in [5] and in assay [6] was greater than 100000 nM in each case. For the same molecule, the TGI in [7], in assay [8], in assay [9] and in assay [10] was greater than 100000 nM each time.
